Assay results taken from ChEMBL document CHEMBL5338803, “Novel Medicinal Chemistry Strategies Targeting CDK5 for Drug Discovery” (J Med Chem, 2023).

Tests used:
[1] = target: Cyclin-dependent kinase 5 (Homo sapiens) (UniProt Q00535); assay: Inhibition of CDK5 (unknown origin) at 10 uM relative to control
[2] = target: Dual specificity tyrosine-phosphorylation-regulated kinase 1A (Homo sapiens) (UniProt Q13627); assay: Inhibition of DYRK1A (unknown origin) at 10 uM relative to control
CDK2/Cyclin A1 = CDK2/Cyclin A1 (Homo sapiens, UniProt P24941); assay: Inhibition of CDK2/cyclin A (unknown origin); format: protein-complex assay
[3] = Selectivity ratio of IC50 for CDK5 (unknown origin) to IC50 for CDK2 (unknown origin)
SH-SY5Y = assay: Neuroprotective activity against amyloid beta (25 to 35)-induced cell damage in human SH-SY5Y cells assessed as survival rate at 10 uM measured after 72 hrs by MTT assay; format: functional; conditions: read-out: Survival
[4] = target: Cyclin-dependent kinase 5/CDK5 activator 1 (Homo sapiens, UniProt Q00535); assay: Inhibition of CDK5/p25 (unknown origin); format: protein-complex assay
Chain of Cyclin-dependent kinase 5/CDK5 activator 1 (Q00535 whole entry): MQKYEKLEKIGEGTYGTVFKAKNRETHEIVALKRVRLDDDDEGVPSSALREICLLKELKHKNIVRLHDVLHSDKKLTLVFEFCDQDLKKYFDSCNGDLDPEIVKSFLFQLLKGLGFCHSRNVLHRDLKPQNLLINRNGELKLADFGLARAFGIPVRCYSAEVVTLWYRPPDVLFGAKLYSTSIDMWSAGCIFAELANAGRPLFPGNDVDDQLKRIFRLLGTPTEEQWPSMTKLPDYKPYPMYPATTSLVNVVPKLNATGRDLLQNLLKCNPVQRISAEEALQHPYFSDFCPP
Chain of Cyclin-dependent kinase 5/CDK5 activator 1 (Q15078 whole entry, further chain): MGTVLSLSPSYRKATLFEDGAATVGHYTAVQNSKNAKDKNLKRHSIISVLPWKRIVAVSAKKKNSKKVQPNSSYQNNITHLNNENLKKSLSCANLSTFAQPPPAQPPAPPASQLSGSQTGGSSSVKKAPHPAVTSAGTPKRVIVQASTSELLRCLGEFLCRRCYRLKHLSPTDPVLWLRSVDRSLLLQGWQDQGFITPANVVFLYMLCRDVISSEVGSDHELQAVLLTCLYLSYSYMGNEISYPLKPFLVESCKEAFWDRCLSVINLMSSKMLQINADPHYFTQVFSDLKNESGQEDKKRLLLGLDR

[5] = target: Cyclin-dependent kinase 5 (Homo sapiens) (UniProt Q00535); assay: Binding affinity to CDK5 (unknown origin) assessed as change in gibbs free energy
[6] = target: Glycogen synthase kinase-3 beta (Homo sapiens, UniProt P49841); assay: Inhibition of GSK3beta (unknown origin)
Chain of Glycogen synthase kinase-3 beta (P49841 whole entry): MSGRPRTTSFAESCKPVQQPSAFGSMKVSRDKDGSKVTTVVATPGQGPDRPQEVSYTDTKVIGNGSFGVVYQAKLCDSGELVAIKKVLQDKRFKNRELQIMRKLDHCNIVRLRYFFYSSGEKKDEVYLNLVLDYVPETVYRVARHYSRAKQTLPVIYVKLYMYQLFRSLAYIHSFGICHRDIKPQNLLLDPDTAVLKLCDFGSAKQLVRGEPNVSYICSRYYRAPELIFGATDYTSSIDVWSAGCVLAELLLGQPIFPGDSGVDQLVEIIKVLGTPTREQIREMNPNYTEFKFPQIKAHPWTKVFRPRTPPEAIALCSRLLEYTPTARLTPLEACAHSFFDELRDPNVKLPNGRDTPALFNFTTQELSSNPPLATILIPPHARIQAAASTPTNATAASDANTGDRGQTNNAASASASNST

[7] = Selectivity index, ratio of IC50 for CDK2/cyclin A (unknown origin) to IC50 for CDK5/p25 (unknown origin)

Chain of Cyclin-dependent kinase 5 (Homo sapiens) (Q00535 whole entry, looked up): as the sequence (Q00535 whole entry) above

Work on O=c1oc2cc(O)cc(O)c2c2ccccc12 yielded an inhibition [1] of 62% and an inhibition [2] of 92.2%.

In the case of CN1CCC(N(CC(=O)O)c2ccc3cnc(Nc4ccc(-n5ccc(CO)n5)cc4F)cc3n2)CC1, the IC50 (CDK2/Cyclin A1) is reported as 444 nM and the Ratio IC50 [3] is reported as 100.

With COc1ccc(OCC(=O)Nc2cccc(-c3nc4ccccc4c(=O)o3)c2)cc1 the viability at 10 µM (SH-SY5Y) was 82.9%.

Compound COc1ccc(CC(=O)Cc2ccn([C@H]3C[C@@H](C(N)=O)C3)c2)cc1 has an IC50 [4] of 9 nM, an IC50 (CDK2/Cyclin A1) of 63 nM and a deltaG [5] of -23 kcal/mol.

Work on O=C(NOc1ccccc1)Nc1csc(Cc2c(Cl)cccc2Cl)n1 yielded an IC50 (CDK2/Cyclin A1) greater than 100000 nM and a Ratio IC50 [3] of 100.

With O=C(C1=C(O)C(=O)N(CCc2c[nH]c3ccccc23)C1c1cccnc1)c1ccc(Cl)cc1 (centres undefined) the viability at 10 µM (SH-SY5Y) was 82.8%.

With O=C(Nc1cc(Br)ccn1)Nc1cccc2c1C1CCCCN1C2=O (centres undefined) the IC50 [6] was 22 nM.

O=C(Nc1csc(Cc2c(Cl)cccc2Cl)n1)NN1CCOCC1 gave a Ratio IC50 [7] of 10.

With NS(=O)(=O)c1cccc(Nc2ncc3c(n2)CCCC3)c1 the inhibition [1] was 98% and the inhibition [2] was 95%.

NC(=O)CN1C(=O)C(O)(CC(=O)c2ccc3ccccc3c2)c2ccccc21 (centres undefined) gave a viability at 10 µM (SH-SY5Y) of 82.6%.

For C[C@@]12CCC[C@H]1[C@@H]1CC[C@H]3C[C@H](N)CC[C@]3(C)[C@H]1CC2, the IC50 [4] was 6000 nM.

C[C@]12CC[C@H]3[C@@H](CCC4=CC(=O)CC[C@@]43C)[C@@H]1CC[C@@H]2C(=O)COS(=O)(=O)c1ccc(Br)cc1 showed an IC50 [4] of 6000 nM.

CN1C(=O)COc2ccc(-c3nn(Cc4ccccc4)c(=O)c4ccccc34)cc21 showed a viability at 10 µM (SH-SY5Y) of 80.1%.
